IC50 data for 23 molecules are collected here from US20240228506A1, “RIPK1 INHIBITORS AND METHODS OF USE” (Merck Sharp & Dohme LLC, priority 2021, published 2024).

In this test the target is T1, GST-RIPK1 (recombinant GST-RIPK1 kinase domain (residues 1-327)) (Homo sapiens, UniProt Q13546).
T1 construct: recombinant GST-RIPK1 kinase domain (residues 1-327) enzyme; made in house; host or cells: baculovirus-transfected Sf21 insect cells
T1 sequence (Q13546 1-327): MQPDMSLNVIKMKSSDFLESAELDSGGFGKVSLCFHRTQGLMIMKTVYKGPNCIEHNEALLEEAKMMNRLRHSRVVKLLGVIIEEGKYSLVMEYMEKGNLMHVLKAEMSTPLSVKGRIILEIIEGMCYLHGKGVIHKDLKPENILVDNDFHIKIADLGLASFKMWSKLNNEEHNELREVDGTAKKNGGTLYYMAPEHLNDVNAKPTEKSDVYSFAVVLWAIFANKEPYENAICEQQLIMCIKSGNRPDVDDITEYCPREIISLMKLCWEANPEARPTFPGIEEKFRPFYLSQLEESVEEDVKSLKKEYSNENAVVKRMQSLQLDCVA
Put plainly: RIPK1-ADP-Glo enzymatic assay. The following applies: 25 nM GST-RIPK1, 300 μM ATP, 3 μM dephosphorylated-MBP; 30 minutes pre-incubation, 150 minutes reaction; ten-point titration. Format: biochemical. The method, then:
The enzymatic activity of RIPK1 is measured using an assay derived from ADP-Glo kit (Promega™), which provides a luminescent-based ADP detection system. Specifically, the ADP generated by RIPK1 kinase is proportionally detected as luminescent signals in a homogenous fashion. In this context, the assessment of the inhibitory effect of small molecules (EC50) is measured by the effectiveness of the compounds to inhibit the ATP to ADP conversion by RIPK1. In this assay, the potency (EC50) of each compound was determined from a ten-point (1:3 serial dilution; top compound concentration of 100000 nM) titration curve using the following outlined procedure. To each well of a white ProxiPlus 384 well-plate, […] of compound (1% DMSO in final assay volume of 3 μL) was dispensed, followed by the addition of 2 μL of 1× assay buffer (25 mM Hepes 7.3, 20 mM MgCl2, 50 mM NaCl, 1 mM DTT, 0.005% Tween20, and 0.02% BSA) containing 37.5 nM of GST-RIPK1 (recombinant GST-RIPK1 kinase domain (residues 1-327) enzyme produced from baculovirus-transfected Sf21 cells: MW=62 kDa). Plates were placed in an ambient temperature humidified chamber for a 30 minutes pre-incubation with compound. Subsequently, each reaction was initiated by the addition of 1 μL 1×assay buffer containing 900 μM ATP and […]. The final reaction in each well of 3 μL consists of 25 nM of GST-RIPK1, 300 μM ATP, and 3 μM dephosphorylated-MBP. Kinase reactions were allowed to proceed for 150 minutes prior to adding ADP-Glo reagents per Promega's outlined kit protocol. Dose-response curves were generated by plotting percent effect (% product conversion; Y-axis) vs. Log10 compound concentrations (X-axis). EC50 values were calculated using a non-linear regression, four-parameters sigmoidal dose-response model.
In general terms: ADP-Glo turns the ADP formed in a reaction into a luminescent signal.

Regarding `CC(C)(C(=O)N1C[C@@H]2C[C@H]1c1cncc(C#CCCc3ccccc3)c1O2)C(F)F` [Compound 2-110, 3,3-difluoro-2,2-dimethyl-1-((2S,5S)-9-(4-phenylbut-1-yn-1-yl)-2,3-dihydro-2,5-methanopyrido[3,4-f][1,4]oxazepin-4(5H)-yl)propan-1-one], the IC50 was 197 nM. Turning to `CC(C)(C(=O)N1C[C@@H]2C[C@H]1c1cncc(C#Cc3cnc(C4CC4)nc3)c1O2)C(F)F` [Compound 2-80, 1-((2S,5S)-9-((2-cyclopropylpyrimidin-5-yl)ethynyl)-2,3-dihydro-2,5-methanopyrido[3,4-f][1,4]oxazepin-4(5H)-yl)-3,3-difluoro-2,2-dimethylpropan-1-one], the half-inhibitory concentration (IC50) was determined as 24 nM. On to `COc1cc(N2CCC(F)(C(=O)N3C[C@@H]4C[C@H]3c3cncc(C#N)c3O4)CC2)ncn1` [Compound 1-53, (2S,5S)-4-(4-fluoro-1-(6-methoxypyrimidin-4-yl)piperidine-4-carbonyl)-2,3,4,5-tetrahydro-2,5-methanopyrido[3,4-f][1,4]oxazepine-9-carbonitrile], for which the IC50 is 226 nM.

With `O=C(N1C[C@@H]2C[C@H]1c1cncc(C#CCC3(F)COC3)c1O2)C12CCC(F)(CC1)C2` [Compound 2-120, (4-fluorobicyclo[2.2.1]heptan-1-yl)((2S,5S)-9-(3-(3-fluorooxetan-3-yl)prop-1-yn-1-yl)-2,3-dihydro-2,5-methanopyrido[3,4-f][1,4]oxazepin-4(5H)-yl)methanone], the half-maximal inhibitory concentration (IC50) came out at 95 nM. In the case of `CN(C)C(C)(C)C(=O)N1C[C@@H]2C[C@H]1c1cncc(C#N)c1O2` [Compound 1-90, (2S,5S)-4-(2-(dimethylamino)-2-methylpropanoyl)-2,3,4,5-tetrahydro-2,5-methanopyrido[3,4-f][1,4]oxazepine-9-carbonitrile], the IC50 turned out to be 85 nM. For the molecule `CCC(F)(F)C(C)(C)C(=O)N1C[C@@H]2C[C@H]1c1cncc(C#N)c1O2` [Compound 1-43, (2S,5S)-4-(3,3-difluoro-2,2-dimethylpentanoyl)-2,3,4,5-tetrahydro-2,5-methanopyrido[3,4-f][1,4]oxazepine-9-carbonitrile], the IC50 is 491 nM. Turning to `CC(C)Oc1ncc(C#Cc2cncc3c2O[C@H]2C[C@@H]3N(C(=O)C(C)(C)C(F)F)C2)cn1` [Compound 2-74, 3,3-difluoro-1-((2S,5S)-9-((2-isopropoxypyrimidin-5-yl)ethynyl)-2,3-dihydro-2,5-methanopyrido[3,4-f][1,4]oxazepin-4(5H)-yl)-2,2-dimethylpropan-1-one], the IC50 is 18 nM. Regarding `CC(C)(C(=O)N1C[C@@H]2C[C@H]1c1cncc(C#CCC3CCCCC3)c1O2)C(F)F` [Compound 2-109, 1-((2S,5S)-9-(3-cyclohexylprop-1-yn-1-yl)-2,3-dihydro-2,5-methanopyrido[3,4-f][1,4]oxazepin-4(5H)-yl)-3,3-difluoro-2,2-dimethylpropan-1-one], the IC50 is 184 nM. With `N#Cc1cncc2c1O[C@H]1C[C@@H]2N(C(=O)C23CCC(CC2(F)F)C3)C1` (single isomer, unassigned) [Compound 1-49, (2S,5S)-4-[(S or R)-2,2-difluorobicyclo[2.2.1]heptane-1-carbonyl]-2,3,4,5-tetrahydro-2,5-methanopyrido[3,4-f][1,4]oxazepine-9-carbonitrile], the IC50 worked out at 70 nM. Next, `Cc1cncc2c1O[C@H]1C[C@@H]2N(C(=O)C(C)(C)C)C1` [Compound 2-13, 2,2-dimethyl-1-((2S,5S)-9-methyl-2,3-dihydro-2,5-methanopyrido[3,4-f][1,4]oxazepin-4(5H)-yl)propan-1-one]: 1100 nM; `CC(C)(C(=O)N1C[C@@H]2C[C@H]1c1cncc(F)c1O2)C1CC1` [Compound 2-16, 2-cyclopropyl-1-((2S,5S)-9-fluoro-2,3-dihydro-2,5-methanopyrido[3,4-f][1,4]oxazepin-4(5H)-yl)-2-methylpropan-1-one]: 74 nM; `CC(C)(C(=O)N1C[C@@H]2C[C@H]1c1cncc(C#Cc3cnc4c(Cl)cnn4c3)c1O2)C(F)F` [Compound 2-81, 1-((2S,5S)-9-((3-chloropyrazolo[1,5-a]pyrimidin-6-yl)ethynyl)-2,3-dihydro-2,5-methanopyrido[3,4-f][1,4]oxazepin-4(5H)-yl)-3,3-difluoro-2,2-dimethylpropan-1-one]: 22 nM. On to `O=C(N1C[C@@H]2C[C@H]1c1cncc(Cl)c1O2)C12CCC(CC1)C2` [Compound 2-31, Bicyclo[2.2.1]heptan-1-yl((2S,5S)-9-chloro-2,3-dihydro-2,5-methanopyrido[3,4-f][1,4]oxazepin-4(5H)-yl)methanone], for which the 50% inhibitory concentration (IC50) came to 20 nM. Turning to `CCC(C)(OC)C(=O)N1C[C@@H]2C[C@H]1c1cncc(C#N)c1O2` (single isomer, unassigned) [Compound 1-17, (2S,5S)-4-[2(S or R)-methoxy-2-methylbutanoyl]-2,3,4,5-tetrahydro-2,5-methanopyrido[3,4-f][1,4]oxazepine-9-carbonitrile], the half-maximal inhibitory concentration (IC50) was determined as 24 nM. Next, `CCC(C)(C(=O)N1C[C@@H]2C[C@H]1c1cncc(C#N)c1O2)C(F)F` (single isomer, unassigned) [Compound 1-84, (2S,5S)-4-(2-(R or S)-(difluoromethyl)-2-methylbutanoyl)-2,3,4,5-tetrahydro-2,5-methanopyrido[3,4-f][1,4]oxazepine-9-carbonitrile]: 47 nM. Next, `C[C@@H]1C2CN(C(=O)C(C)(C)C(F)F)[C@H]1c1cncc(C#N)c1O2` (single isomer, unassigned) [Compound 5-3]: 432 nM. Under `COc1cccc(C#Cc2cncc3c2O[C@H]2C[C@@H]3N(C(=O)C34CCC(C(F)(F)F)(CC3)C4)C2)c1` [Compound 2-66, ((2S,5S)-9-((3-methoxyphenyl)ethynyl)-2,3-dihydro-2,5-methanopyrido[3,4-f][1,4]oxazepin-4(5H)-yl)(4-(trifluoromethyl)bicyclo [2.2.1]heptan-1-yl)methanone] stands 18 nM.

As to `N#Cc1cncc2c1O[C@H]1C[C@@H]2N(C(=O)C23CCC(C2)OC3)C1` (single isomer, unassigned) [Compound 1-50, (2S,5S)-4-[(S or R)-2-oxabicyclo[2.2.1]heptane-4-carbonyl]-2,3,4,5-tetrahydro-2,5-methanopyrido[3,4-f][1,4]oxazepine-9-carbonitrile], the IC50 is 300 nM. `CC(C)C12CC(C(=O)N3C[C@@H]4C[C@H]3c3cncc(C#N)c3O4)(C1)C2` [Compound 1-99, (2S,5S)-4-(3-isopropylbicyclo[1.1.1]pentane-1-carbonyl)-2,3,4,5-tetrahydro-2,5-methanopyrido[3,4-f][1,4]oxazepine-9-carbonitrile]: the half-inhibitory concentration (IC50) turned out to be 48 nM. Take `N#Cc1cncc2c1O[C@H]1C[C@@H]2N(C(=O)C23CCC(C2)C3)C1` [Compound 1-31, (2S,5S)-4-(bicyclo[2.1.1]hexane-1-carbonyl)-2,3,4,5-tetrahydro-2,5-methanopyrido[3,4-f][1,4]oxazepine-9-carbonitrile]: the IC50 is 54 nM. For `O=C(N1C[C@@H]2C[C@H]1c1cncc(C#Cc3cccnc3)c1O2)C12CCC(C(F)(F)F)(CC1)C2` [Compound 2-58, ((2S,5S)-9-(pyridin-3-ylethynyl)-2,3-dihydro-2,5-methanopyrido[3,4-f][1,4]oxazepin-4(5H)-yl)(4-(trifluoromethyl)bicyclo [2.2.1]heptan-1-yl)methanone], the IC50 amounted to 12 nM. On to `N#Cc1cncc2c1O[C@H]1C[C@@H]2N(C(=O)C23CCC(CC2)CC3)C1` [Compound 1-61, (2S,5S)-4-(bicyclo[2.2.2]octane-1-carbonyl)-2,3,4,5-tetrahydro-2,5-methanopyrido[3,4-f][1,4]oxazepine-9-carbonitrile], for which the IC50 is 34 nM. For `N#Cc1cncc2c1O[C@H]1C[C@@H]2N(C(=O)C2(C(F)(F)F)CCCC2)C1` [Compound 1-13, (2S,5S)-4-[1-(trifluoromethyl)cyclopentane-1-carbonyl]-2,3,4,5-tetrahydro-2,5-methanopyrido[3,4-f][1,4]oxazepine-9-carbonitrile], the IC50 amounted to 130 nM.

Broadly, the IC50 is the concentration at which inhibition is half-maximal.
